Reference: ChEMBL document CHEMBL3885881, “DrugMatrix”

Species: Rattus norvegicus
Assay: DrugMatrix - Regimen: Daily Repeat
Assay type: toxicity, organism-based, Sprague-Dawley
Design: regimen Daily Repeat, gender Male, age 6-8 weeks
Conditions: in vivo, po, […], route oral GAVAGE; for ABSOLUTE BASOPHIL / ABSOLUTE EOSINOPHIL / ABSOLUTE LYMPHOCYTE / ABSOLUTE MONOCYTE / ABSOLUTE SEGMENTED NEUTROPHIL / BASOPHIL / EOSINOPHIL / ERYTHROCYTE COUNT / HEMATOCRIT / HEMOGLOBIN / LEUKOCYTE COUNT / LYMPHOCYTE / MEAN CORPUSCULAR HEMOGLOBIN / MEAN CORPUSCULAR HEMOGLOBIN CONCENTRATION / MEAN CORPUSCULAR VOLUME / MONOCYTE / NEUTROPHIL / NUCLEATED RED BLOOD CELLS / PLATELET COUNT: tissue Blood; for ALANINE AMINOTRANSFERASE / ALBUMIN / ALKALINE PHOSPHATASE / ASPARTATE AMINOTRANSFERASE / BLOOD UREA NITROGEN / CARBON DIOXIDE / CHLORIDE / CHOLESTEROL / CREATINE PHOSPHOKINASE / CREATININE / GLUCOSE / LACTATE DEHYDROGENASE / LIPASE / PHOSPHORUS / POTASSIUM / SODIUM / TOTAL BILIRUBIN / TOTAL PROTEIN / URIC ACID: tissue Plasma
[1] = 130 mg/kg, dose level Low, time 7 day
[2] = 500 mg/kg, 72 h, dose level High, time 3 day
[3] = 500 mg/kg, dose level High, time 7 day

With `CCOC(=O)C(C)(C)Oc1ccc(Cl)cc1` [CLOFIBRATE] the “ABSOLUTE BASOPHIL” value [1] was 0 CELLS/uL, the “ABSOLUTE EOSINOPHIL” value [1] was 21.17 CELLS/uL and the “ABSOLUTE LYMPHOCYTE” value [1] was 6867.67 CELLS/uL. For the same compound, the “ABSOLUTE MONOCYTE” value [1] was 104.17 CELLS/uL, the “ABSOLUTE SEGMENTED NEUTROPHIL” value [1] was 707 CELLS/uL and the BASOPHIL [1] was 0%. The EOSINOPHIL [1] was 0.17%, the “ERYTHROCYTE COUNT” value [1] was 5.45 x10E6/uL and the HEMATOCRIT [1] was 34%. The HEMOGLOBIN [1] was 13.12 G/DL, the “LEUKOCYTE COUNT” value [1] was 7.7 x10E3/uL and the LYMPHOCYTE [1] was 90.17%. The “MEAN CORPUSCULAR HEMOGLOBIN” value [1] was 24.08 pg, the “MEAN CORPUSCULAR HEMOGLOBIN CONCENTRATION” value [1] was 38.57 G/DL and the “MEAN CORPUSCULAR VOLUME” value [1] was 62.45 fL. For the same compound, the MONOCYTE [1] was 1.17%, the NEUTROPHIL [1] was 8.5% and the “NUCLEATED RED BLOOD CELLS” value [1] was 0 /100WBC. The “PLATELET COUNT” value [1] was 1220 x10E3/uL, the “ALANINE AMINOTRANSFERASE” value [1] was 65.83 u/L and the ALBUMIN [1] was 4.38 G/DL. For the same compound, the “ALKALINE PHOSPHATASE” value [1] was 251.5 u/L, the “ASPARTATE AMINOTRANSFERASE” value [1] was 76.33 u/L and the “BLOOD UREA NITROGEN” value [1] was 14.33 mg/dL. For the same compound, the “CARBON DIOXIDE” value [1] was 30.5 mmol/L, the CHLORIDE [1] was 104.5 MEQ/L and the CHOLESTEROL [1] was 60.5 mg/dL. The “CREATINE PHOSPHOKINASE” value [1] was 323.5 u/L, the CREATININE [1] was 0.21 mg/dL and the GLUCOSE [1] was 149.17 mg/dL. The “LACTATE DEHYDROGENASE” value [1] was 102.17 u/L, the LIPASE [1] was 9.67 u/L and the PHOSPHORUS [1] was 10.73 mg/dL. The POTASSIUM [1] was 5.56 MEQ/L, the SODIUM [1] was 146.55 MEQ/L and the “TOTAL BILIRUBIN” value [1] was 0.1 mg/dL. For the same compound, the “TOTAL PROTEIN” value [1] was 6.07 G/DL, the “URIC ACID” value [1] was 0.98 mg/dL and the “ABSOLUTE BASOPHIL” value [2] was 0 CELLS/uL. For the same compound, the “ABSOLUTE EOSINOPHIL” value [2] was 0 CELLS/uL, the “ABSOLUTE LYMPHOCYTE” value [2] was 11363.33 CELLS/uL and the “ABSOLUTE MONOCYTE” value [2] was 222.5 CELLS/uL. For the same compound, the “ABSOLUTE SEGMENTED NEUTROPHIL” value [2] was 1180.83 CELLS/uL, the BASOPHIL [2] was 0% and the EOSINOPHIL [2] was 0%. For the same compound, the “ERYTHROCYTE COUNT” value [2] was 5.54 x10E6/uL, the HEMATOCRIT [2] was 33.68% and the HEMOGLOBIN [2] was 13.67 G/DL. For the same compound, the “LEUKOCYTE COUNT” value [2] was 12.77 x10E3/uL, the LYMPHOCYTE [2] was 89% and the “MEAN CORPUSCULAR HEMOGLOBIN” value [2] was 24.72 pg. The “MEAN CORPUSCULAR HEMOGLOBIN CONCENTRATION” value [2] was 40.7 G/DL, the “MEAN CORPUSCULAR VOLUME” value [2] was 60.78 fL and the MONOCYTE [2] was 1.67%. For the same compound, the NEUTROPHIL [2] was 9.33%, the “NUCLEATED RED BLOOD CELLS” value [2] was 0 /100WBC and the “PLATELET COUNT” value [2] was 1039.67 x10E3/uL. The “ALANINE AMINOTRANSFERASE” value [2] was 88.83 u/L, the ALBUMIN [2] was 4.27 G/DL and the “ALKALINE PHOSPHATASE” value [2] was 424.33 u/L. For the same compound, the “ASPARTATE AMINOTRANSFERASE” value [2] was 162 u/L, the “BLOOD UREA NITROGEN” value [2] was 18 mg/dL and the “CARBON DIOXIDE” value [2] was 26.83 mmol/L. The CHLORIDE [2] was 103.5 MEQ/L, the CHOLESTEROL [2] was 32.5 mg/dL and the “CREATINE PHOSPHOKINASE” value [2] was 350.5 u/L. For the same compound, the CREATININE [2] was 0.19 mg/dL, the GLUCOSE [2] was 152.17 mg/dL and the “LACTATE DEHYDROGENASE” value [2] was 380 u/L. It also gave an LIPASE [2] of 9.17 u/L, a PHOSPHORUS [2] of 9.13 mg/dL and a POTASSIUM [2] of 6.05 MEQ/L. For the same compound, the SODIUM [2] was 141.43 MEQ/L, the “TOTAL BILIRUBIN” value [2] was 0.2 mg/dL and the “TOTAL PROTEIN” value [2] was 5.38 G/DL. For the same compound, the “URIC ACID” value [2] was 1.42 mg/dL, the “ABSOLUTE BASOPHIL” value [3] was 0 CELLS/uL and the “ABSOLUTE EOSINOPHIL” value [3] was 10.67 CELLS/uL. For the same compound, the “ABSOLUTE LYMPHOCYTE” value [3] was 6850.83 CELLS/uL, the “ABSOLUTE MONOCYTE” value [3] was 72 CELLS/uL and the “ABSOLUTE SEGMENTED NEUTROPHIL” value [3] was 433.17 CELLS/uL. The BASOPHIL [3] was 0%, the EOSINOPHIL [3] was 0.17% and the “ERYTHROCYTE COUNT” value [3] was 5.25 x10E6/uL. The HEMATOCRIT [3] was 32.12%, the HEMOGLOBIN [3] was 12.58 G/DL and the “LEUKOCYTE COUNT” value [3] was 7.37 x10E3/uL. The LYMPHOCYTE [3] was 92.67%, the “MEAN CORPUSCULAR HEMOGLOBIN” value [3] was 23.97 pg and the “MEAN CORPUSCULAR HEMOGLOBIN CONCENTRATION” value [3] was 39.23 G/DL. The “MEAN CORPUSCULAR VOLUME” value [3] was 61.12 fL, the MONOCYTE [3] was 1% and the NEUTROPHIL [3] was 6.17%. For the same compound, the “NUCLEATED RED BLOOD CELLS” value [3] was 0 /100WBC, the “PLATELET COUNT” value [3] was 961.33 x10E3/uL and the “ALANINE AMINOTRANSFERASE” value [3] was 91 u/L. The ALBUMIN [3] was 4.27 G/DL, the “ALKALINE PHOSPHATASE” value [3] was 368.83 u/L and the “ASPARTATE AMINOTRANSFERASE” value [3] was 131.17 u/L. The “BLOOD UREA NITROGEN” value [3] was 15.67 mg/dL, the “CARBON DIOXIDE” value [3] was 32 mmol/L and the CHLORIDE [3] was 102 MEQ/L. The CHOLESTEROL [3] was 52.67 mg/dL, the “CREATINE PHOSPHOKINASE” value [3] was 300.5 u/L and the CREATININE [3] was 0.21 mg/dL. The GLUCOSE [3] was 154.17 mg/dL, the “LACTATE DEHYDROGENASE” value [3] was 169.67 u/L and the LIPASE [3] was 10.17 u/L. It also gave a PHOSPHORUS [3] of 10.03 mg/dL, a POTASSIUM [3] of 5.38 MEQ/L and an SODIUM [3] of 143.68 MEQ/L. The “TOTAL BILIRUBIN” value [3] was 0.1 mg/dL, the “TOTAL PROTEIN” value [3] was 5.75 G/DL and the “URIC ACID” value [3] was 0.85 mg/dL.
